The record followed here is ChEMBL document CHEMBL3046888, “Antiviral and Antifungal Activities of Some Naphthoquinones Isolated from the Roots of Lithospermum erythrorhizon” (J Pestic Sci, 1998).

The subject of data set [1] is Tobacco mosaic virus. Briefly: Antiviral activity against Tobacco mosaic virus (TMV) in compound treated tobacco leaf assessed as growth inhibition at 25 mM at 25 degC for 3 days (16 hr in light) by half-leaf method. It counts as functional. Also noted: dose or concentration left out as unconfirmed.
For data set [2], the system named is Tobacco mosaic virus. As to the kind of experiment: Antiviral activity against Tobacco mosaic virus (TMV) in compound treated tobacco leaf assessed as growth inhibition at 5 mM at 25 degC for 3 days (16 hr in light) by half-leaf method. It counts as functional.
Data set [3] deals with Cladosporium herbarum. As to the kind of experiment: Antifungal activity against Cladosporium herbarum assessed as inhibition at 1250 nmol in 8 mm disk. It counts as functional.
The test system of data set [4] is Cladosporium herbarum. As to the kind of experiment: Antifungal activity against Cladosporium herbarum assessed as inhibition at 10 nmol in 8 mm disk. It counts as functional.
For data set [5], the system named is Cladosporium herbarum. As to the kind of experiment: Antifungal activity against Cladosporium herbarum assessed as inhibition at 50 nmol in 8 mm disk. It counts as functional.
The test system of data set [6] is Cladosporium herbarum. Briefly: Antifungal activity against Cladosporium herbarum assessed as inhibition at 250 nmol in 8 mm disk. It counts as functional.
Data set [7] deals with Nicotiana tabacum. Briefly: Phytotoxicity against Nicotiana tabacum (tobacco) plant at 25 mM. It counts as organism-based. The note with it: in vivo, 25000 µM.

Active and inactive are the calls of the source. No cut-off for these calls is given here.

As usually defined, the inhibition is the share of the control response that was lost under treatment. Turning to `CCC(C)C(=O)O[C@H](CC=C(C)C)C1=CC(=O)c2c(O)ccc(O)c2C1=O` (some centres undefined), the inhibition in data set [1] is 86.1%. The inhibition result in data set [2] was “inactive”.
Take `CC(C)=CC[C@@H](OC(=O)CC(C)C)C1=CC(=O)c2c(O)ccc(O)c2C1=O`: the inhibition in data set [1] turned out to be 86.1%. The inhibition at 5000 µM in data set [2] is 46%.
On to `CCC(=O)O[C@H](CC=C(C)C)C1=CC(=O)c2c(O)ccc(O)c2C1=O`, for which the “diameter of the inhibition zone (DIZ)” value in data set [3] stood at 15.1 mm; in data set [4] it was 9.1 mm; in data set [5], 11.3 mm; in data set [6], 15.6 mm. Moreover, the inhibition in data set [1] worked out at 99.9%. Moreover, in data set [2], the inhibition at 5000 µM came out at 86.1%.
In the case of `CC(=O)O[C@H](CC=C(C)C)C1=CC(=O)c2c(O)ccc(O)c2C1=O` [ACETYLSHIKONIN], the “diameter of the inhibition zone (DIZ)” value in data set [3] was 13.4 mm; in data set [4] it was 10.1 mm; in data set [5] it was 13 mm; in data set [6] it was 13.3 mm. Further, in data set [1], the inhibition stood at 78.7%. Besides, the inhibition at 5000 µM in data set [2] worked out at 73.2%.
Turning to `CC(C)=CC[C@@H](OC(=O)CC(C)(C)O)C1=CC(=O)c2c(O)ccc(O)c2C1=O` [BETA-HYDROXYISOVALERYLSHIKONIN], the “diameter of the inhibition zone (DIZ)” value in data set [3] is given as 17.6 mm; in data set [4], 9.1 mm; in data set [5], 13.8 mm; in data set [6] it was 16 mm. For the same compound, the Activity result in data set [7] was “Toxic”. In addition, in data set [2], the inhibition at 5000 µM amounted to 44%.
With `CC(C)=CCCC1=CC(=O)c2c(O)ccc(O)c2C1=O` [DEOXYSHIKONIN], in data set [1], the inhibition came to 87.3%. The inhibition at 5000 µM in data set [2] stood at 66.4%.
As for `CC(C)=CC[C@@H](OC(=O)C=C(C)C)C1=CC(=O)c2c(O)ccc(O)c2C1=O` [DIMETHYLACRYLSHIKONIN], in data set [1], the inhibition is 70.2%. Besides, the inhibition at 5000 µM in data set [2] came out at 26%.
As for `CC(C)=CC[C@@H](OC(=O)C(C)C)C1=CC(=O)c2c(O)ccc(O)c2C1=O` [ISOBUTYLSHIKONIN], the inhibition in data set [1] stood at 75.5%. Further, the inhibition at 5000 µM in data set [2] came out at 49.5%.
For `CC(C)=CC[C@@H](O)C1=CC(=O)c2c(O)ccc(O)c2C1=O` [SHIKONIN], the “diameter of the inhibition zone (DIZ)” value in data set [3] is recorded as 15.9 mm; in data set [4] it was 9.9 mm; in data set [5], 13.4 mm; in data set [6] it was 14.1 mm. Further, in data set [7], the Activity result was “Toxic”. Moreover, the inhibition entry in data set [2] was “inactive”.
